Results from publication PMC10224329, “Design, Synthesis, and Antiproliferative Activity of Benzopyran-4-One-Isoxazole Hybrid Compounds” (Molecules, 2023).

Tests used:
[1] = tested on: androgen-independent human prostate cancer (DU-145) cell lines; assay: MTS cell viability assay; format: cell-based; settings: for IC50: average of three independent tests in triplicate; for inhibition at 25 µM: conjugates at 25 μM
Description: (§1) All the 14 hybrid compounds synthesized via Scheme 1, along with the intermediates and starting compounds, were tested in vitro for their cytotoxicity against a panel of 6 human cancer cell lines. This panel involved human leukemia carcinoma (CCRF-CEM), human ovarian adenocarcinoma (SKOV-3), human breast tumor (MDA-MB-231), human prostate cancer (PC-3), androgen-independent human prostate cancer (DU-145), and human renal carcinoma (iSLK) cell lines. The compounds were tested at a concentration of 25 μM for incubation periods of 24 and 72 h. Standard anticancer drug doxorubicin at a concentration of 5 μM and DMSO were used as controls in all the cell assays. The antiproliferative profile of benzopyran-4-one-isoxazole conjugates is shown in Figure 2 (cf. Supplementary Materials for the data obtained for intermediates and starting materials Figure S28.1–S28.6, page no. 71–76).
(§2) Cell viability assays were performed using the MTS protocol. The in vitro cytotoxicity of the conjugates was evaluated using six human cancer cell lines, one human normal kidney cell line, and one mammalian normal kidney cell line, which included human leukemia carcinoma cell lines (CCRF-CEM), human ovarian adenocarcinoma cell lines (SKOV-3), human breast tumor cell lines (MDA-MB-231), human prostate cancer cell lines (PC-3), androgen-independent human prostate cancer cell lines (DU-145), human renal carcinoma (iSLK), human embryonic kidney cell lines (HEK-293), and normal mammalian kidney cell line (LLCPK) to determine the toxicity of the synthesized conjugates. CCRF-CEM cells were seeded at 50,000 cells in 0.1 mL per well in 96-well plates, and in the case of SKOV-3, MDA-MB-231, PC-3, DU-145, HEK-293, and LLCPK cell lines, the cells were seeded at 5000 cells in 0.1 mL per well in 96-well plates. The CCRF-CEM cells were seeded in RPMI-1640 media containing 2mM L-glutamine, 1.5 g/L sodium bicarbonate, supplemented with fetal bovine serum (FBS) 10% media, SKOV-3, MDA-MB-231, and LLCPK cells were seeded in MEME media with Earle’s salts and sodium bicarbonate, without L-glutamine, supplemented with fetal bovine serum (FBS) 10%, PC-3 cells were seeded in DMEM:F-12 containing 1:1 mixture with L-glutamine with HEPES, supplemented with fetal bovine serum (FBS) 10%, and DU-145 and HEK-293 cells were seeded in DMEM containing 4500 mg/L glucose, L-glutamine, and sodium bicarbonate, without sodium pyruvate, supplemented with FBS (10%), 24 h prior to the experiment. The compounds at a final concentration of 25 µM (higher concentration stock solution prepared in DMSO) were added to each well in triplicate and incubated for 24 and 72 h at 37 °C in a humidified atmosphere (95% air and 5% CO2). The cell viability was then determined by measuring the absorbance of the formazan product at 490 nm using a microplate reader using a SpectraMax M2 microplate spectrophotometer, Molecular Devices, San Jose, CA, USA. The percentage of cell survival was calculated as [(OD value of cells treated with the test mixture of compounds) − (OD value of culture medium)]/[(OD value of control cells) − (OD value of culture medium)] × 100%. IC50 values of compounds were calculated using non-linear regression analysis in GraphPad Prism (Boston, MA, USA).

[2] = tested on: human breast tumor (MDA-MB-231) cell lines; assay: MTS cell viability assay; format: cell-based; settings: for IC50: average of three independent tests in triplicate; for inhibition at 25 µM: conjugates at 25 μM
Description: as §1, §2

[3] = tested on: human leukemia carcinoma (CCRF-CEM) cell lines; assay: MTS cell viability assay; format: cell-based; settings: for inhibition at 25 µM: conjugates at 25 μM; for IC50: average of three independent tests in triplicate
Description: as §1, §2

[4] = tested on: human ovarian adenocarcinoma (SKOV-3) cell lines; assay: MTS cell viability assay; format: cell-based; settings: 72 h, read-out: Inhibition of Cancer Cell Lines SKOV-3; for inhibition at 25 µM: SK-OV-3, conjugates at 25 μM
Description: as §1, §2

[5] = tested on: human prostate cancer (PC-3) cell lines; assay: MTS cell viability assay; format: cell-based; settings: for IC50: PC3, average of three independent tests in triplicate; for inhibition at 25 µM: conjugates at 25 μM
Description: as §1, §2

[6] = tested on: human renal carcinoma (iSLK) cell lines; assay: MTS cell viability assay; format: cell-based; settings: 72 h; for inhibition at 25 µM: Homo sapiens, conjugates at 25 μM, read-out: Inhibition of Cancer Cell Lines iSLK
Description: as §1, §2

[7] = tested on: human embryonic kidney (HEK-293) cell lines; assay: MTS cell viability assay, non-cancerous cells; format: cell-based; settings: for IC50: average of three independent tests in triplicate; for inhibition at 25 µM: HEK293, conjugates at 25 μM, 72 h
Source text: (§3) The compounds were further screened for their in vitro cytotoxicity against non-cancerous normal cell lines, viz., human embryonic kidney (HEK-293) and normal pig kidney (LLCPK) cell lines. These cell lines were selected to determine whether the compounds had selectivity against cancerous cells in contrast to non-cancerous cells. The data obtained is shown in Figure 3a–b (cf. Supplementary Materials for the data obtained for intermediates and starting materials Figure S28.7–S28.8, page no. 77–78).
as §2

[8] = tested on: panel of cancer cell lines (CCRF-CEM, SKOV-3, MDA-MB-231, PC-3, DU-145, iSLK); assay: MTS cell viability assay, summary over the cancer cell line panel; format: cell-based; settings: Homo sapiens; range over CCRF-CEM, MDA-MB-231, PC3, DU-145; read-out: IC50 against all the cancer cell lines (range)
Description: as §1, §2

[9] = tested on: normal pig kidney (LLCPK) cell lines; assay: MTS cell viability assay, non-cancerous cells; format: cell-based; settings: Sus scrofa, 72 h
Source text: as §3, §2

[10] = target: phosphatidylinositol 3-kinase (PI3K); design: method as in PMID 8106507; settings: cellular; cited from earlier work
[11] = tested on: MDA-MB-231 cells; assay: Annexin V-FITC/PI apoptosis assay by flow cytometry; format: cell-based, human; settings: MDA-MB-231, 5 μM, 72 h
Description: In accordance with the MTS assay, compound 5a had promising antiproliferative action. Therefore, we attempted to study the mechanism triggering cell death. […] MDA-MB-231 cells were treated with 5 μM of compound 5a and Dox (5 μM) as a positive control and incubated for 72 h, then double-stained carefully by membrane-linked protein Annexin-V fluorescein isothiocyanate (FITC) and propidium iodide (PI) for flow cytometry analysis. Normally, in the early stages of apoptosis, phosphatidylserine flips from the inner cell membrane to the surface of the cell membrane. […] PI is a nucleic acid dye that can only cross the membrane of advanced apoptosis and necrotic cells and redden the nucleus. Consequently, when the treated cells are double stained by the two fluorescent dyes, early and late apoptosis and necrotic cells can be clearly distinguished. […] These findings illustrated that compound 5a mainly leads to the early apoptosis of MDA-MB-231 cells.
The assay was detected using a commercially available kit (FITC Annexin V Apoptosis Detection Kit II, BD Biosciences, San Jose, CA, USA) per the manufacturer’s instructions. Briefly, MDA-MB-231 cells were seeded in 6-well plates at a concentration of 1 × 10^6 cells/well for 24 h; after that, cells were treated with 5a (5 µM) for 72 h. Dox (5 µM) was used as a positive control. After the treatment period, cells were washed with cold phosphate-buffered saline (PBS) twice. The cells were collected after trypsin treatment and centrifugated to get a pellet, and a binding buffer (1X) was used to resuspend the cells. Annexin V (5 μL) and propidium iodide (PI) (5 μL) were mixed with 100 μL of the suspended cells (1 × 10^6 cells/mL), followed by 15 min incubation at room temperature in the dark. The mixture was diluted by adding 400 μL of 1× binding buffer, and the cells were analyzed using flow cytometry, FACS Verse (BD Biosciences, USA). The experiment was repeated three times independently.

[12] = tested on: human embryonic kidney (HEK-293) cell lines; assay: MTS cell viability assay, non-cancerous cells; format: cell-based; settings: HEK293, Dox at 5 μM, 72 h
[13] = 72 h, read-out: Inhibition of Cancer Cell Lines MDA-MB-231
[14] = Homo sapiens, CCRF-CEM, 72 h, read-out: Inhibition of Cancer Cell Lines CCRF-CEM
[15] = Homo sapiens, HEK293, normal HEK-293 cells

SMILES | IC50 [1] [µM] | IC50 [2] [µM] | IC50 ([3]; Homo sapiens, CCRF-CEM) [µM] | IC50 [5] [µM] | IC50 [8] [µM] | inhibition at 25 µM ([1]; 72 h) [%] | inhibition at 25 µM [2, 13] [%] | inhibition at 25 µM [3, 14] [%] | inhibition at 25 µM [4] [%] | inhibition at 25 µM ([5]; 72 h) [%] | inhibition at 25 µM [6] [%] | IC50 [7, 15] [µM] | inhibition at 25 µM ([7]; Homo sapiens) [%] | IC50 ([7]; normal HEK-293 cells) [µM] | other results
O=c1cc(N2CCOCC2)oc2c(-c3ccccc3)cccc12 [LY294002, 2-(4-Morpholinyl)-8-Phenyl-4H-1-Benzopyran-4-One] |  |  |  |  |  |  |  |  |  |  |  |  |  |  | IC50 [10]: ~1400 nM
COc1cccc2c1C(=O)c1c(O)c3c(c(O)c1C2=O)C[C@@](O)(C(=O)CO)C[C@@H]3O[C@H]1C[C@H](N)[C@H](O)[C@H](C)O1 [doxorubicin, reference compound] |  |  |  |  |  |  |  |  |  |  |  |  |  |  | inhibition at 5 µM ([1]; Dox at 5 μM, 72 h): 57%; inhibition at 5 µM ([2]; Dox at 5 μM, 72 h, read-out: Inhibition of Cancer Cell Lines MDA-MB-231): 73%; inhibition at 5 µM ([3]; Homo sapiens, CCRF-CEM, Dox at 5 μM, 72 h, read-out: Inhibition of Cancer Cell Lines CCRF-CEM): 82%; inhibition at 5 µM ([4]; SK-OV-3, Dox at 5 μM): 62%; inhibition at 5 µM ([5]; Dox at 5 μM, 72 h): 54%; Inhibition of Cancer Cell Lines iSLK ([6]; Dox at 5 μM): NIL; inhibition at 5 µM ([9]; Dox at 5 μM): 74%; Early Apoptosis [11]: 61.15%; Late Apoptosis [11]: 28.29%; inhibition at 5 µM [12]: 43%

More lines, main results first:

IC50 [1] [µM] | IC50 [2] [µM] | IC50 ([3]; Homo sapiens, CCRF-CEM) [µM] | IC50 [5] [µM] | IC50 [8] [µM] | SMILES | inhibition at 25 µM ([1]; 72 h) [%] | inhibition at 25 µM [2, 13] [%] | inhibition at 25 µM [3, 14] [%] | inhibition at 25 µM [4] [%] | inhibition at 25 µM ([5]; 72 h) [%] | inhibition at 25 µM [6] [%] | IC50 [7, 15] [µM] | inhibition at 25 µM ([7]; Homo sapiens) [%] | IC50 ([7]; normal HEK-293 cells) [µM] | other results
51.1 | 22.2 | 36.5 | 14.8 | 14.8 to 51.1 | COc1cccc2occ(COC(=O)c3c(C)noc3C)c(=O)c12 [Compound 5b, (5-Methoxy-4-oxo-4H-1-benzopyran-3-yl)methyl 3,5-dimethylisoxazole-4-carboxylate] | 50 | 60 | 83 | 42 | 75 | 23 | 102 | 34 | 192 | 
12.2 | 11 | 3.31 | 12.9 | 3.3 to 12.9 | COc1ccc2occ(COC(=O)c3c(C)noc3C)c(=O)c2c1 [Compound 5c, (6-Methoxy-4-oxo-4H-1-benzopyran-3-yl)methyl 3,5-dimethylisoxazole-4-carboxylate] | 81 | 70 | 83 | 45 | 74 | 31 | 222 | 38 |  | fold potency for CCRF-CEM cell lines ([3]; compared to 5a, 5b, and 5d, from IC50): 3–12 fold
14.6 | 5.26 | 16.2 | 12.7 | 5.2 to 16.1 | COc1ccc2c(=O)c(COC(=O)c3c(C)noc3C)coc2c1 [Compound 5d, (7-Methoxy-4-oxo-4H-1-benzopyran-3-yl)methyl 3,5-dimethylisoxazole-4-carboxylate] | 79 | 76 | 82 | 48 | 75 | 42 | 192 | 40 | 102 | inhibition at 25 µM ([9]; conjugates at 25 μM): 18%
